# Source: US10076519B2 (CYTOKINETICS, INC., priority 2010, dated 2018)
# Test system: rabbit skeletal myofibrils (fast skeletal myofibrils)
# Test: Activation of fast skeletal myofibrils (PUMA assay, PK/LDH-coupled ATPase at pCa25)
# Format: biochemical
# Conditions: AC1.4 determined according to the procedure of Example 39; reported as class symbols
# Procedure, shortened: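 Detergent-washed rabbit psoas myofibrils (~90% fast fibres, calcium-regulated) assayed at calcium giving 25% of maximal ATPase rate (pCa25). ADP turnover coupled via pyruvate kinase/lactate dehydrogenase to NADH oxidation, read at 340 nm. Buffer 12 mM PIPES, 2 mM MgCl2, 1 mM DTT, pH 6.8; AC1.4 values derived.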
row,Mean AC1.4,Compound
1,A (A=<1 uM),CC(C)(CNc1ccc(-c2ccc(O)cn2)nn1)c1ccc(F)cc1 [6-(6-{[2-(4-fluorophenyl)-2-methylpropyl]amino}pyridazin-3-yl)pyridin-3-ol]
2,B (B=1-10 uM),CC(C)(CNc1ccc(-c2cccc(C(N)=O)n2)nn1)c1ccc(F)cc1 [6-(6-{[2-(4-fluorophenyl)-2-methylpropyl]amino}pyridazin-3-yl)pyridine-2-carboxamide]
3,B (B=1-10 uM),CC(C)(CNc1ccc(-c2ccc(C(N)=O)cn2)nn1)c1ccc(F)cc1 [6-(6-{[2-(4-fluorophenyl)-2-methylpropyl]amino}pyridazin-3-yl)pyridine-3-carboxamide]
4,D (D=>20 uM),Oc1cccc(C2(CNc3ccc(-c4ccc5[nH]ncc5c4)nn3)CCC2)n1 [6-({[(6-(1H-indazol-5-yl)pyridazin-3-yl)amino]methyl}cyclobutyl) pyridin-2-ol]
5,D (D=>20 uM),Oc1cccc(C2(CNc3ccc(-c4ccc5cn[nH]c5c4)nn3)CCC2)n1 [6-({[(6-(1H-indazol-6-yl)pyridazin-3-yl)amino]methyl}cyclobutyl) pyridin-2-ol]
6,D (D=>20 uM),CN1CCN(C(=O)c2ccc(NCC(C)(C)c3ccc(F)cc3)nn2)CC1 [6-{[2-(4-fluorophenyl)-2-methylpropyl]amino}pyridazin-3-yl 4-methylpiperazinyl ketone]
7,D (D=>20 uM),CC(C)(CNc1ccc(C(=O)N2CCOCC2)nn1)c1ccc(F)cc1 [6-{[2-(4-fluorophenyl)-2-methylpropyl]amino}pyridazin-3-yl morpholin-4-yl ketone]
8,D (D=>20 uM),CC(C)(CNc1ccc(C(=O)N2CCNCC2)nn1)c1ccc(F)cc1 [6-{[2-(4-fluorophenyl)-2-methylpropyl]amino}pyridazin-3-yl piperazinyl ketone]
9,D (D=>20 uM),CC(C)(CNc1ccc(C#N)nn1)c1ccc(F)cc1 [6-{[2-(4-fluorophenyl)-2-methylpropyl]amino}pyridazine-3-carbonitrile]
10,C (C=10-20 uM),CC(C)(CNc1ccc(C(N)=O)nn1)c1ccc(F)cc1 [6-{[2-(4-fluorophenyl)-2-methylpropyl]amino}pyridazine-3-carboxamide]
11,D (D=>20 uM),CC(C)(CNc1ccc(C(=O)O)nn1)c1ccc(F)cc1 [6-{[2-(4-fluorophenyl)-2-methylpropyl]amino}pyridazine-3-carboxylic acid]

# Same assay, conditions: median AC1.4 class, procedure of Example 39
row,Mean AC1.4,Compound
1,D (D=>20 uM),N#Cc1ccc(NCC2(c3ncccc3F)CCC2)nn1 [6-((1-(3-Fluoropyridin-2-yl)cyclobutyl)methylamino)pyridazine-3-carbonitrile]
2,A (A=<1 uM),"NC(=O)c1csc2nc(-c3ccc(NC[C@]4(c5ncccc5F)C[C@H](F)C4)nn3)cn12 [6-[6-({[3-fluoro-1-(3-fluoro(2-pyridyl))cyclobutyl]methyl}ami-no)pyridazin-3-yl]imidazo[2,1-b]1,3-thiazoline-3-carboxamide]"
3,A (A=<1 uM),"NC(=O)c1csc2nc(-c3ccc(NCC4(c5ncccc5F)CCC4)nn3)cn12 [6-[6-({[(3-fluoro-2-pyridyl)cyclobutyl]methyl}ami-no)pyridazin-3-yl]imidazo[2,1-b]1,3-thiazoline-3-carboxamide]"
4,A (A=<1 uM),"O=C(O)c1csc2nc(-c3ccc(NCC4(c5ncccc5F)CCC4)nn3)cn12 [6-[6-({[(3-fluoro-2-pyridyl)cyclobutyl]methyl}ami-no)pyridazin-3-yl]imidazo[2,1-b]1,3-thiazoline-3-carboxylic acid]"
5,B (B=1-10 uM),N#Cc1cncc(-c2ccc(NCC3(c4ncccc4F)CCC3)nn2)n1 [6-[6-({[(3-fluoro-2-pyridyl)cyclobutyl]methyl}ami-no)pyridazin-3-yl]pyrazine-2-carbonitrile]
6,C (C=10-20 uM),NC(=O)c1cncc(-c2ccc(NCC3(c4ncccc4F)CCC3)nn2)n1 [6-[6-({[(3-fluoro-2-pyridyl)cyclobutyl]methyl}ami-no)pyridazin-3-yl]pyrazine-2-carboxamide]
7,B (B=1-10 uM),NC(=O)c1cc(-c2ccc(NCC3(c4ncccc4F)CCC3)nn2)ncn1 [6-[6-({[(3-fluoro-2-pyridyl)cyclobutyl]methyl}ami-no)pyridazin-3-yl]pyrimidine-4-carboxamide]
8,B (B=1-10 uM),"N#C/N=C(/N)c1cnc(-c2ccc(NCC3(c4ncccc4F)CCC3)nn2)s1 [(2E)-3-amino-3-{2-[6-({[(3-fluoro(2-pyridyl))cyclobutyl]methyl}ami-no)pyridazin-3-yl](1,3-thiazol-5-yl)}-2-azaprop-2-enenitrile]"
9,A (A=<1 uM),"N[C@H](CO)C(=O)NCc1cnc(-c2ccc(NCC3(c4ncccc4F)CCC3)nn2)s1 [(2R)-2-amino-N-({2-[6-({[(3-fluoro(2-pyridyl))cyclobutyl]methyl}ami-no)pyridazin-3-yl](1,3-thiazol-5-yl)}methyl)-3-hydroxypropanamide]"
10,A (A=<1 uM),"C[C@@H](N)C(=O)NCc1cnc(-c2ccc(NCC3(c4ncccc4F)CCC3)nn2)s1 [(2R)-2-amino-N-({2-[6-({[(3-fluoro(2-pyridyl))cyclobutyl]methyl}ami-no)pyridazin-3-yl](1,3-thiazol-5-yl)}methyl)propanamide]"
11,A (A=<1 uM),"N[C@@H](CO)C(=O)NCc1cnc(-c2ccc(NCC3(c4ncccc4F)CCC3)nn2)s1 [(2S)-2-amino-N-({2-[6-({[(3-fluoro(2-pyridyl))cyclobutyl]methyl}ami-no)pyridazin-3-yl](1,3-thiazol-5-yl)}methyl)-3-hydroxypropanamide]"

# Second part, the compound before the results:
row,Compound,Mean AC1.4
1,NC(=O)c1ccc(F)c(-c2ccc(NC3(c4cccc(C(N)=O)n4)CCC3)nn2)c1 [6-({[6-(3-carbamoyl-6-fluorophenyl)pyridazin-3-yl]amino}cyclobutyl)pyridine-2-carboxamide],D (D=>20 uM)
2,CC(C)(Nc1ccc(-c2ccccc2)nn1)c1ccccc1 [(1-methyl-1-phenylethyl)(6-phenylpyridazin-3-yl)amine],B (B=1-10 uM)

# Same assay, conditions: median AC1.4 reported as class; procedure of Example 39
row,Mean AC1.4,Compound
1,D (D=>20 uM),NC(=O)c1ccc(NCC2(c3ncccc3F)CCC2)nn1 [6-({[(3-fluoro-2-pyridyl)cyclobutyl]methyl}ami-no)pyridazine-3-carboxamide]
2,D (D=>20 uM),O=C(O)c1ccc(NCC2(c3ncccc3F)CCC2)nn1 [6-({[(3-fluoro-2-pyridyl)cyclobutyl]methyl}ami-no)pyridazine-3-carboxylic acid]
3,B (B=1-10 uM),O=C1NCc2ccc(-c3ccc(NC[C@]4(c5ncccc5F)C[C@H](F)C4)nn3)cc21 [6-[6-({[3-fluoro-1-(3-fluoro(2-pyridyl))cyclobutyl]methyl}ami-no)pyridazin-3-yl]isoindolin-1-one]
4,B (B=1-10 uM),"O=c1cc(-c2ccc(NCC3(c4ncccc4F)CCC3)nn2)nc2[nH]ccn12 [7-[6-({[(3-fluoro-2-pyridyl)cyclobutyl]methyl}ami-no)pyridazin-3-yl]-4-hydro-4-imidazolino[1,2-a]pyrimidin-5-one]"
5,A (A=<1 uM),"C[C@@H](O)C(=O)NCc1cnc(-c2ccc(NCC3(c4ncccc4F)CCC3)nn2)s1 [(2R)-N-({2-[6-({[(3-fluoro(2-pyridyl))cyclobutyl]methyl}ami-no)pyridazin-3-yl](1,3-thiazol-5-yl)}methyl)-2-hydroxypropanamide]"
